Experimental data as given in ChEMBL document CHEMBL6078642, “Design, Synthesis, and Activity Evaluation of BRD4 PROTAC Based on Alkenyl Oxindole-DCAF11 Pair” (J Med Chem, 2024).
Active and inactive are the calls of the source. No cut-off for these calls is given here.

Columns and labels:
HEK293T = assay: Induction of BRD4 BD1 domain (unknown origin) degradation expressed in DCAF11 knockout HEK293T cells assessed as decrease in red fluorescence at 1 uM incubated for 12 hrs by dual fluorescence reporter cell based high content imaging analysis; details: Homo sapiens
DCAF11-BRD4 [1] = molecular target: T1, DCAF11-BRD4 (Homo sapiens, UniProt O60885+Q8TEB1); assay: PROTAC activity at DCAF11/BRD4 in human MDA-MB-231 cells assessed as induction of BRD4 degradation at 10 to 100 nM incubated for 1 hrs by immunoblot analysis; assay type: cell-based; details: dose 10-100 nM
DCAF11-BRD4 [2] = molecular target: T1, DCAF11-BRD4; assay: PROTAC activity at DCAF11/BRD4 BD1 domain (unknown origin) expressed in HEK293T cells assessed as induction of BRD4 degradation at 1 uM incubated for 12 hrs by Dual fluorescence reporter cell high content imaging analysis relative to control; assay type: cell-based
MDA-MB-231 = assay: Antiproliferative activity against human MDA-MB-231 cells assessed as reduction in cell viability incubated for 2 days by CCK8 assay; assay type: functional, cell-based; details: MDA-MB-231, 48 h
MDA-MB-468 = assay: Antiproliferative activity against human MDA-MB-468 cells assessed as reduction in cell viability incubated for 2 days by CCK8 assay; assay type: functional, cell-based; details: MDA-MB-468, 48 h

T1 sequence (Q8TEB1 whole entry, looked up, other chains not shown, the tested form may be a part): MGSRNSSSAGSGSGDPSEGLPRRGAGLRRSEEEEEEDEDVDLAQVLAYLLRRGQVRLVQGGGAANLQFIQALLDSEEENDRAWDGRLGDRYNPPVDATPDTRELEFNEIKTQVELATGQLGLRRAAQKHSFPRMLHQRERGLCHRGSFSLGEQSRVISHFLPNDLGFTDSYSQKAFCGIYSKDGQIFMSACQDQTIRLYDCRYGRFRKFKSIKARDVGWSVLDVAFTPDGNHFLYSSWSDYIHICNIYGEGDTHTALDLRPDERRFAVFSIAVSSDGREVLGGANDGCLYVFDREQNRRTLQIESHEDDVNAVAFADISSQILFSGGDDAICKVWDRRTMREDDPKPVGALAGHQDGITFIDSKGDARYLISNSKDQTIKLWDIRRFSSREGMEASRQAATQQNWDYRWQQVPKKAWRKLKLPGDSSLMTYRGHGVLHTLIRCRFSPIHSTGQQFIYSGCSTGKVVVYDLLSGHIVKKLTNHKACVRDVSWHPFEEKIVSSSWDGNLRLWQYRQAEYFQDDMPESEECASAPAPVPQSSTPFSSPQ

| SMILES | Activity (HEK293T) | Activity (DCAF11-BRD4 [1]) | Activity (DCAF11-BRD4 [2]) | IC50 (MDA-MB-231) | IC50 (MDA-MB-468) |
| --- | --- | --- | --- | --- | --- |
| Cc1sc2c(c1C)C(c1ccc(Cl)cc1)=N[C@@H](CC(=O)NCCCOCCOCCOCCCNC(=O)COc1ccc(Br)cc1/C=C1\C(=O)Nc3cc(C(F)(F)F)ccc31)c1nnc(C)n1-2 | inactive |  |  |  |  |
| Cc1ccc(OCC(=O)NCCCOCCOCCOCCCNC(=O)C[C@@H]2N=C(c3ccc(Cl)cc3)c3c(sc(C)c3C)-n3c(C)nnc32)c(/C=C2\C(=O)Nc3ccc(Cl)cc32)c1 (stereo in doubt) | inactive | Active | > 35% |  |  |
| Cc1ncsc1-c1ccc(CNC(=O)[C@@H]2C[C@@H](O)CN2C(=O)[C@@H](NC(=O)COCCOCCOCCNC(=O)C[C@@H]2N=C(c3ccc(Cl)cc3)c3c(sc(C)c3C)-n3c(C)nnc32)C(C)(C)C)cc1 |  |  |  | 20 nM | 1200 nM |
| Cc1sc2c(c1C)C(c1ccc(Cl)cc1)=N[C@@H](CC(=O)NCCCOCCOCCOCCCNC(=O)COc1ccc(/C=C3/C(=O)Nc4ccc(Cl)cc43)cc1)c1nnc(C)n1-2 (stereo in doubt) |  |  | > 35% |  |  |
| Cc1ccc(OCC(=O)NCCCOCCOCCOCCCNC(=O)C[C@@H]2N=C(c3ccc(Cl)cc3)c3c(sc(C)c3C)-n3c(C)nnc32)c(/C=C2\C(=O)Nc3ccc(Br)cc32)c1 (stereo in doubt) | inactive |  | > 35% |  |  |
| Cc1ccc(OCC(=O)NCCCOCCOCCOCCCNC(=O)C[C@@H]2N=C(c3ccc(Cl)cc3)c3c(sc(C)c3C)-n3c(C)nnc32)c(/C=C2\C(=O)Nc3ccc(F)cc32)c1 (stereo in doubt) | inactive | Active | > 35% |  |  |
| Cc1sc2c(c1C)C(c1ccc(Cl)cc1)=N[C@@H](CC(=O)NCCCOc1cccc(/C=C3/C(=O)Nc4cc(C(F)(F)F)ccc43)c1)c1nnc(C)n1-2 | inactive |  | > 35% |  |  |
| Cc1ccc(OCC(=O)NCCOCCOCCOCCOCCNC(=O)C[C@@H]2N=C(c3ccc(Cl)cc3)c3c(sc(C)c3C)-n3c(C)nnc32)c(/C=C2/C(=O)Nc3cc(C(F)(F)F)ccc32)c1 (stereo in doubt) | inactive |  | > 35% |  |  |
